Measured values as given in patent US11666559B2, “Spiro-lactam compounds, process and uses thereof” (UNIVERSIDADE DE COIMBRA, priority 2017, dated 2023).
Entries after “also recorded” stand apart in the source; their conditions may differ.

How the values were obtained:
[1] = Acute toxicity assay in Wistar rats
Procedure: Wistar rats (n=5) were inoculated IP with different doses of BSS-593 and effects on liver, renal and lipid homeostasis were assessed by dosing different biochemical parameters 48 h after inoculation. ALT, AST and LDH were determined as markers of liver function and serum level of creatinine were determined as marker of renal function. Serum levels of total cholesterol, low-density cholesterol (LDL), high-density cholesterol (HDL) and triglycerides were measured to evaluate the effect of the drugs on lipid homeostasis. Results were expressed as the means with their standard errors and were compared using a one-factorial ANOVA test, followed by a Bonferroni's multi-comparison post hoc test.
In an embodiment, the acute toxicity assay of spiro-β-lactam BSS-593 was carried out. […] Control animals were administered with sterile saline (1 mL/kg; n=4). […] After blood collection animals were necropsied to identify macroscopic signs of organ injury.
In an embodiment, an acute toxicity assay was carried out. Female Wistar (220-250 g) rats were randomly divided in 4 groups. […] A fourth group of control animals was administered with sterile saline (B. Braun, Portugal) (1 mL/kg; n=4). Animals received the test drug via the intraperitoneal route and were monitored regularly for visible stress or toxicity signs such as death. All rats were anesthetized with sodium pentobarbital (Eutasil, 60 mg/kg i.p; Sanofi VeterinAria, Alges, Portugal) prior to intracardiac puncture for blood collection. […] Blood was collected into a serum SST gel and clot activator tube (Becton Dickinson, Le Pont de Claix, France) and was centrifuged (1000×g for 10 min at room temperature) to separate serum. Serum was analyzed within 24 h on a laboratory bench Clinical Chemistry Analyser c111 (Roche Diagnostics, Lda). Uver injury was assessed by measuring the rise in the serum levels of alanine aminotransferase (ALT, a specific marker for hepatic parenchymal injury), aspartate aminotransferase (AST, a nonspecific marker for hepatic injury) and lactate dehydrogenase (LDH, a marker of nonspecific cellular injury). Serum levels of creatinine was determined as marker of renal injury. Serum levels of total cholesterol, low-density cholesterol (LDL), high-density cholesterol (HDL) and triglycerides were also measured to evaluate the effect of the drugs on lipid homeostasis. Results were expressed as the means with their standard errors and were compared using a one-factorial ANOVA test, followed by a Bonferroni's multi-comparison post hoc test. A P value <0.05 was considered to be statistically significant.

HIV = assay: Anti-HIV activity evaluation (HIV type not specified); format: cell-based; settings: both CCR-tropic isolates and CXCR4-tropic isolates; concentration of 15.2 μM
Procedure: In an embodiment, TZM-bl cells (AIDS Research and Reference Reagent Program, National Institutes of Health, USA) were cultured in complete growth medium that consists of Dulbecco's minimal essential medium (DMEM) supplemented with 10% fetal bovine serum (FBS), 100 U/ml of penicillin-streptomycin (Gibco/Invitrogen, USA), 1 mM of sodium pyruvate (Gibco/Invitrogen, USA), 2 mM of L-glutamine (Gibco/Invitrogen, USA) and 1 mM of non-essential amino acids (Gibco/Invitrogen, USA).
In an embodiment, the primary isolates 93AOHDC249, 93AOHDC250, 01PTHDECJN and 03PTHCC9, used in this study were previously isolated, titrated and characterized for co-receptor usage. HIV reference strain SG3.1 was obtained by transfection of HEK293T cells with pSG3.1 (HIV-1) plasmid using Fugene 6 reagent (Roche, Switzerland) according to manufacturer's instructions.
In an embodiment, the 50% tissue culture infectious dose (TCID50) of the virus was determined in a single-round viral infectivity assay using a luciferase reporter gene assay in TZM-bl cells and calculated using the statistical method of Reed and Muench^27.
In an embodiment, the antiviral activity of the compounds was determined in a single-round assay with TZM-bl cells as previously described ^26. […] After 48 h of infection, luciferase expression was quantified with the One-Glow luciferase assay substrate reagent (Promega, USA) according to manufacturer's instructions. […] After an incubation of 3 minutes at room temperature to allow complete cell lysis luminescence was measured in Tecan Infinite M200. Background luminescence was measured by using control wells that contained only target cells and GM. […]
In an embodiment, dose-response curves were estimated from the percentage of inhibition of infection (y-axis) against logo of concentration of each compound (x-axis) using the sigmoidal dose-response equation (variable slope) in GraphPad Prism version 5.00 for Windows (GraphPad Software, San Diego Calif. USA, www.graphpad.com). IC50 and IC90 values were determined from this curve. […]

[2] = single intraperitoneal dose 0.1, 1 or 10 mg/kg, 48 h

SMILES	time to anaesthesia (sodium pentobarbital) between treated and control animals ([1]; intraperitoneal 0.1, 1 or 10 mg/kg, reflects apparent CNS effects)	abnormal behavior or signs of toxicity [1, 2]	biochemical markers of liver function, kidney function and general cell injury (ALT, AST, creatinine, LDH in the blood) vs control animals [1, 2]	blood lipid profiles (cholesterol, LDL, HDL and TG) [1, 2]	macroscopic signs of organ injury at necropsy ([1]; single intraperitoneal dose 0.1, 1 or 10 mg/kg, after blood collection)	animal survival rate ([1]; single intraperitoneal dose 0.1, 1 or 10 mg/kg, test period of 48 h) [%]	inhibition of the replication (HIV)
COC(=O)C1=C[C@@]2(N=N1)C(=O)N1[C@@H](C(=O)O)C(C)(C)S[C@@H]12 [BSS-593, (2,3′R,5R)-5′-(methoxycarbonyl)-3,3-dimethyl-7-oxo-4-thia-1-azaspiro[bicyclo[3.2.0]heptane-6,3′-pyrazole]-2-carboxylic acid]	no significant differences	No abnormal behavior or signs of abnormal toxicity were noticed	no significant differences; also recorded: does not induce liver and renal injury	no changes; also recorded: does not alter lipid metabolism	No significant differences	100	
CC1(C)S[C@H]2N(C(=O)[C@]23CC=C(C(=O)OCc2ccccc2)[C@@H]3C(=O)c2ccccc2)[C@H]1C(=O)OC(c1ccccc1)c1ccccc1 [BSS-730A]							about 100%
